Read-outs that look alike come from different tables or passages of the source.
Test system: NFκB and AP-1
Test: NFκB and AP-1 luciferase reporter assays in stable Jurkat T-cells (PMA/PHA stimulated)
Assay type: cell-based, human
Settings: average of NFκB and AP-1 assays, read-out: ICm (average of the measurements obtained from the NFκB and AP-1 assays)
Source text: Stable human Jurkat T-cells containing an NFκB binding site (from the MHC promoter) fused to a minimal SV-40 promoter driving luciferase expression were used in this experiment. Cells were split to 3×10^5 cells/mL every 2-3 days (cell concentration should not exceed 1×10^6 cells/mL to keep the cells proliferating in log phase). These cells were counted, resuspended in fresh medium containing 10% Serum-Plus at a density of 1×10^6 cells/mL and plated in 96 well round bottom plates (200 μ.LAMBDA. per well) 18 hours prior to starting the experiment.
Compounds of this invention, dissolved in dimethyl sulfoxide (3.3, 0.33 and 0.03 μg/mL), were then added to the 96 well plates containing the cells and the plates were incubated for 0.5 h at 37° C. Then 50 ng/mL of phorbol 12-myristate-13-acetate (PMA) and 1 μg/mL of phytohemagglutinin (PHA) were added to each well and the cells were incubated for an additional 5 h at 37° C. The plates were centrifuged at 2200 RPM for 3 minutes at room temperature and then the medium was removed. To each well was added 60 μL of cell lysis buffer and the plates were left at room temperature for 0.25 h. Then 40 μL of each cell extract was transferred to a black 96 well plate and 50 μL of luciferase substrate buffer was added. Luminescence was immediately measured using a Packard TopCount.
For AP-1, the assay was run as described above for NFκB except stable Jurkat T-cells were used that contained a collagenase promoter driving luciferase expression. In addition, the concentration of PMA used was 5 ng/mL.
The IC50 values reported in Table 3 are the average of the measurements obtained from the NFκB and AP-1 assays described above.

IC50 (Homo sapiens) | IC50 | Compound
250 nM | – | CC1=CC(=O)N(Nc2nc(-c3cccs3)ncc2-c2nnc(C)o2)C1=O [Example 142, 4-[N-(1'-AMINOCITRACONAMIDO)]-5-(5"-METHYL-1",3",4"-OXADIAZOL-2"-YL)-2-(2'"-THIENYL)PYRIMIDINE]
400 nM | – | CCOC(=O)c1cnc(N(C(=O)OCC)N2C(=O)C=C(C)C2=O)nc1C(F)(F)F [Example 99, ETHYL 2-[N-(1'-AMINOCITRACONAMIDO)-N-(ETHOXYCARBONYL)]-4-TRIFLUOROMETHYLPYRIMIDINE-5-CARBOXYLATE]
400 nM | – | CCOC(=O)c1cnc(N(C)N2C(=O)C=C(C)C2=O)nc1-c1ccc(Cl)s1 [Example 68, ETHYL 2-[N-(1'-AMINOCITRACONAMIDO)-N-METHYL]-4-[2'-(5"-HLOROTHIENYL]PYRIMIDINE-5-CARBOXYLATE]
310 nM | – | CC1=CC(=O)N(Nc2nc(-c3cccs3)ncc2-c2nc(C)co2)C1=O [Example 137, 4-[N-(1'-AMINOCITRACONAMIDO)]-5-(4"-METHYLOXAZOL-2-YL)-2-(2'"-THIENYL)PYRIMIDINE]
1500 nM | – | CCOC(=O)c1cnc(NN2C(=O)C=C(C)C2=O)nc1C1CC1 [Example 108, ETHYL 2-[N-(1'-AMINOCITRACONAMIDO)]-4-CYCLOPROPYLPYRIMIDINE-5-CARBOXYLATE]
500 nM | – | CCCC(=O)c1cnc(N(C)N2C(=O)C=C(C)C2=O)nc1CC [Example 107, 5-BUTANOYL 2-[N-(1'-AMINOCITRACONAMIDO-N-METHYL)]-4-ETHYLPYRIMIDINE]
500 nM | – | CCOC(=O)c1cnc(NN2C(=O)C=C(C)C2=O)nc1-c1ccsc1 [Example 88, ETHYL 2-[N-(1'-AMINOCITRACONAMIDO)]-4-(3'-THIENYL)PYRIMIDINE-5-CARBOXYLATE]
150 nM | – | COC(=O)c1cnc(N(C)N2C(=O)C=C(C)C2=O)nc1C(F)(F)C(F)(F)F [Example 78, METHYL 2-[N-(1'-AMINOCITRACONAMIDO)]-N-METHYL]-4-PENTAFLUOROETHYLPYRMIDINE-5-CARBOXYLATE]
700 nM | – | CCOC(=O)c1cnc(N(C(=O)NC)N2C(=O)C=C(C)C2=O)nc1C(F)(F)F [Example 96, ETHYL 2-[N-(1'-AMINOCITRACONAMIDO)-N-(N'-METHYLCARBOXAMIDYL)]-4-TRIFLUOROMETHYLPYRIMIDINE-5-CARBOXYLATE]
300 nM | – | CCOC(=O)c1cnc(N(C)N2C(=O)C=C(C)C2=O)nc1-c1ccc(C)s1 [Example 92, ETHYL 2-[N-(1'-AMINOCITRACONAMIDO-N-METHYL)]-4-[2'-(5'-METHYLTHIENYL)]PYRIMIDINE-5-CARBOXYLATE]
– | 3900 nM | CCOC(=O)c1cnc(NN2C(=O)C(CC)=C(CC)C2=O)nc1C(F)(F)F [Example 41, ETHYL 2-[N-(1'-AMINO-3',4'-DIETHYLMALEIMIDO)]-4-TRIFLUOROMETHYLPYRIMIDINE-5-CARBOXYLATE]
1100 nM | – | CCOC(=O)c1cnc(NN2C(=O)C=C(C)C2=O)nc1-c1ccco1 [Example 91, ETHYL 2-[N-(1'-AMINOCITRACONAMIDO)]-4-(2'-FURANYL)PYRIMIDINE-5-CARBOXYLATE]
4000 nM | – | CCOC(=O)c1cnc(Cc2ccc(Cl)c(Cl)c2)nc1NN1C(=O)C=C(C)C1=O [Example 124, ETHYL 4-[N-(1'-AMINOCITRACONAMIDO)]-2-(3',4'-DICHLOROBENZYL)-PYRIMIDINE-5-CARBOXYLATE]
200 nM | – | CCOC(=O)c1cnc(N(C)N2C(=O)C=C(C)C2=O)nc1-c1cc2ccccc2s1 [Example 104, ETHYL 2-[N-(1'-AMINOCITRACONAMIDO)]-4-(2'-THIANAPHTHYL)PYRIMIDINE-5-CARBOXYLATE]
4000 nM | – | CCOC(=O)c1cnc(-c2ccccc2)nc1N(C(C)=O)N1C(=O)C=C(C)C1=O [Example 117, ETHYL 4-[N-ACETYL-N-(1'-AMINOCITRACONAMIDO)]-2-PHENYLPYRIMIDINE-5-CARBOXYLATE]
6000 nM | – | CCOC(=O)c1cnc(NN2C(=O)C=C(C)C2=O)nc1COC [Example 98, ETHYL 2-[N-(1'-AMINOCITRACONAMIDO)]-4-METHOXYMETHYL PYRIMIDINE-5-CARBOXYLATE]
800 nM | – | CCOC(=O)c1cnc(-c2cccs2)nc1N(C)N1C(=O)C=C(C)C1=O [Example 123, ETHYL 4-[N-(1'-AMINOCITRACONAMIDO)-N-METHYL]-2-(2'-THIENYL)-PYRIMIDINE-5-CARBOXYLATE]
30 nM | – | CCOC(=O)c1cnc(-c2ccccc2)nc1NN1C(=O)C=C(C)C1=O [Example 115]
20 nM | – | CCOC(=O)c1cnc(-c2cccs2)nc1NN1C(=O)C=C(C)C1=O [Example 122, ETHYL 4-[N-(1'-AMINOCITRACONAMIDO)]-2-(2'-THIENYL)-PYRIMIDINE-5-CARBOXYLATE]

IC50 (Homo sapiens) | IC50 | Compound
200 nM | – | CCOC(=O)c1cnc(N(C)N2C(=O)C=C(C)C2=O)nc1C1CC1 [Example 109, ETHYL 2-[N-(1'-AMINOCITRACONAMIDO-N-METHYL)]-4-CYCLOPROPYLPYRIMIDINE-5-CARBOXYLATE]
2400 nM | – | CCOC(=O)c1cnc(NN2C(=O)C=C(C)C2=O)nc1-c1nccs1 [Example 105, ETHYL 2-[N-(1'-AMINOCITRACONAMIDO)]-4-(2'-THIAZOLYL)PYRIMIDINE-5-CARBOXYLATE]
450 nM | – | CCOC(=O)c1cnc(N(Cc2ccccc2)N2C(=O)C=C(C)C2=O)nc1C(F)(F)F [Example 84, ETHYL 2-[N-(1'-AMINOCITRACONAMIDO-N-BENZYL)]-4-TRIFLUOROMETHYLPYRIMIDINE-5-CARBOXYLATE]
750 nM | – | CC1=CC(=O)N(N(C)c2ncc(-c3nc(C)co3)c(-c3cccs3)n2)C1=O [Example 127, 2-[N-(1'-AMINOCITRACONAMIDO)-N-METHYL]-5-[2"-(4"-METHYL)OXAZOLYL]-4-(2'"-THIENYL)PYRIMIDINE]
17000 nM | – | CCOC(=O)c1cnc(C)nc1NN1C(=O)C=C(C)C1=O [Example 118, ETHYL 4-[N-(1'-AMINOCITRACONAMIDO)]-2-METHYLPYRIMIDINE-5-CARBOXYLATE]
450 nM | – | CCCc1nc(N(C(C)=O)N2C(=O)C=C(C)C2=O)ncc1C(=O)OCC [Example 74, ETHYL 2-[N-ACETYL-N-(1'-AMINOCITRACONAMIDO)]-4-PROPYLPYRIMIDINE-5-CARBOXYLATE]
– | 120 nM | 4-[N-(1'-AMINOCITRACONAMIDO)]-5-(N-METHYL TETRAZOLYL)-2-(2"-THIENYL)PYRIMIDINE [Example 135]
1700 nM | – | CCOC(=O)c1cnc(N(C)N2C(=O)C=C(C)C2=O)nc1-c1nccs1 [Example 106, ETHYL 2-[N-(1'-AMINOCITRACONAMIDO)-N-METHYL]-4-(2'-THIAZOLYL)PYRIMIDINE-5-CARBOXYLATE]
5000 nM | – | CCOC(=O)c1cnc(N(C)N2C(=O)C=C(C)C2=O)nc1C(F)(F)F [Example 42, ETHYL 2-[N-(1'-AMINOCITRACONAMIDO)-N-METHYL]-4-TRIFLUOROMETHYLPYRIMIDINE-5-CARBOXYLATE]
1300 nM | – | COC(=O)c1cnc(NN2C(=O)C=C(C)C2=O)nc1C(F)(F)C(F)(F)F [Example 77, METHYL 2-[N-(1'-AMINOCITRACONAMIDO)]-4-PENTAFLUOROETHYLPYRIMIDINE-5-CARBOXYLATE]
5150 nM | – | CC1=CC(=O)N(Nc2nc(-c3cccs3)ncc2C#N)C1=O [Example 143, 4-[N-(1'-AMINOCITRACONAMIDO)]-5-CYANO-2-(2'-THIENYL)PYRIMIDINE]
1100 nM | – | CCN(c1ncc(C(=O)OC)c(C(F)(F)F)n1)N1C(=O)C=C(C)C1=O [Example 94, METHYL 2-[N-(1'-AMINOCITRACONAMIDO-N-ETHYL)]-4-TRIFLUOROMETHYLPYRIMIDINE-5-CARBOXYLATE]
1400 nM | – | CCOC(=O)c1cnc(-c2ccccc2)nc1N(C)N1C(=O)C=C(C)C1=O [Example 116, ETHYL-4-[N-(1'-AMINOCITRACONAMIDO)-N-METHYL]-2-PHENYLPYRIMIDINE-5-CARBOXYLATE]
900 nM | – | CCOC(=O)c1cnc(N(C(=O)Cc2ccccc2)N2C(=O)C=C(C)C2=O)nc1C(F)(F)F [Example 97, ETHYL 2-[N-(1'-AMINOCITRACONAMIDO)-N-(1-OXO-2"-PHENYLETHYL]-4-TRIFLUOROMETHYLPYRIMIDINE-5-CARBOXYLATE]
190 nM | – | CC1=CC(=O)N(Nc2nc(-c3cccs3)ncc2-c2cc(C)no2)C1=O [Example 132, 4-[N-(1'-AMINOCITRACONAMIDO)]-5-(3"-METHYLISOXAZOL-5'-YL)-2-(2'"-THIENYL)PYRIMIDINE]
200 nM | – | CC1=CC(=O)N(Nc2ncc(C(=O)OC(C)(C)C)c(C(F)(F)F)n2)C1=O [Example 79, t-BUTYL 2-[N-(1'-AMINOCITRACONAMIDO)]-4-TRIFLUOROMETHYLPYRIMIDINE-5-CARBOXYLATE]
800 nM | – | CCOC(=O)c1cnc(N(C(=O)c2ccccc2)N2C(=O)C=C(C)C2=O)nc1C(F)(F)F [Example 100, ETHYL 2-[N-(1'-AMINOCITRACONAMIDO)-N-BENZOYL]-4-TRIFLUOROMETHYLPYRIMIDINE-5-CARBOXYLATE]
400 nM | – | CCOC(=O)c1cnc(N(C)N2C(=O)C=C(C)C2=O)nc1C(F)(F)C(F)(F)F [Example 103, ETHYL-2-[N-(1'-AMINOCITRACONAMIDO)-N-METHYL]-4-PENTAFLUOROETHYLPYRIMIDINE-5-CARBOXYLATE]

— patent US5935966A, “Pyrimidine carboxylates and related compounds and methods for treating inflammatory conditions” (Signal Pharmaceuticals, Inc., priority 1996, dated 1999)
